Test: gradient 5% acetonitrile 3 min, to 50% in 2 min, to 85% in 15 min, held 3 min, 100 µL/min
Conditions: column: Zorbax Extend-C18 2.1 x 50 mm; eluents: water / acetonitrile, 0.1% formic acid
Outline: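 A Zorbax Extend-C18 column (2.1 × 50 mm, 1.8 μm) run at 100 μL/min with water and acetonitrile, both containing 0.1% formic acid, separated mixtures of ~100 pure standards. The HPLC was coupled to a quadrupole time-of-flight mass spectrometer operated in positive and negative ionization mode, with dead and dwell volumes of 40 μL and 900 μL. Each retention time was taken from a computationally picked adduct peak that was then manually inspected.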

Work on `COc1cc(NC(=O)CSc2nccc(N3CCN(c4cccc(OC)c4)CC3)n2)cc(OC)c1` yielded an RP-LC retention time of 667 s.

Molecule `O=c1c(S(=O)(=O)N2CCCC2)cccn1Cc1ccccc1Cl` has an RP-LC retention time of 860 s.

`CCn1nc(CNC(=O)c2ccc(F)cc2)c2ccccc21` showed an RP-LC retention time of 839 s.

Work on `COCCN1CCn2cc(S(=O)(=O)Nc3cc(C)cc(C)c3)cc2C1=O` yielded an RP-LC retention time of 745 s.

Molecule `CC(C)c1nccn1C1CN(C(=O)C(C)c2ccccc2)C1` (configuration not stated) has an RP-LC retention time of 612 s.

`Cc1cc2nn(CC(=O)N(C)c3ccccc3)c(=O)n2c(Nc2ccc(F)cc2)n1` showed an RP-LC retention time of 1010 s.

For `CN(C)C(=O)CN1CCN(c2cc(C(=O)O)c3cc(NC(=O)c4ccc(F)cc4)ccc3n2)CC1`, the RP-LC retention time was 579 s.

With `COC(=O)c1cccc(C(=O)Nc2ccc(C)c(Cl)c2)n1` the RP-LC retention time was 991 s.

`CCN(Cc1ccccc1)C(=O)c1cn(-c2cc(N3CCC(C)CC3)ncn2)cn1` gave an RP-LC retention time of 1120 s.

Molecule `CCOc1ccc2nc(NC3=NCN(CCCOC)CN3)nc(C)c2c1` has an RP-LC retention time of 668 s.

Work on `CCc1nc2cc(N3CCC(C(=O)Nc4ccc(OC)cc4OC)CC3)cnc2nc1CC` yielded an RP-LC retention time of 877 s.

In the case of `Cc1cc(N2CCN(S(=O)(=O)c3ccc(C)c(C)c3)CC2)nc(NC2CCCCC2)n1`, the RP-LC retention time is reported as 876 s.

In the case of `Cc1ccccc1CN1CCN(CC(=O)NC2CCN(Cc3ccccc3)CC2)C(=O)C1=O`, the RP-LC retention time is reported as 633 s.

Molecule `Cc1oc(C2CCN(S(=O)(=O)c3ccc(Cl)cc3)CC2)nc1C(=O)N(C)C` has an RP-LC retention time of 863 s.

For `CCN1CCN(CCCNC(=O)c2cc(-c3ccc(C)c(C)c3)[nH]c2C)CC1`, the RP-LC retention time was 595 s.

Work on `Cc1ccc(CNC(=O)Nc2ccc3nnc(C)n3c2)cc1` yielded an RP-LC retention time of 661 s.

With `O=C([C@@H]1C[C@H](Oc2cccnc2)CN1C(=O)c1ccoc1)N1CCCC1` the RP-LC retention time was 553 s.

`O=C(Nc1ccccc1)c1c(O)c2cccnc2n(-c2cccc(F)c2)c1=O` gave an RP-LC retention time of 1210 s.

`CCCN(C)CC1(O)CCC2(CCN(C(=O)C3CCCC3)CC2)CC1` showed an RP-LC retention time of 584 s.

Molecule `O=C(NCc1ccc(F)cc1)C1CCCN(C(=O)C2Sc3ccccc3NC2=O)C1` (configuration not stated) has an RP-LC retention time of 759 s.

With `CN(C)C(=O)c1csc(S(=O)(=O)N2CCC(C(=O)NCc3ccc(Cl)cc3)CC2)c1` the RP-LC retention time was 787 s.

For `COc1ccc(-c2nc(C3CC(=O)N(c4ccc(OC)c(OC)c4)C3)no2)c(OC)c1` (configuration not stated), the RP-LC retention time was 797 s.

Molecule `O=C(Nc1ccccc1F)C1CC(=O)N(CCc2c[nH]c3ccc(F)cc23)C1` (configuration not stated) has an RP-LC retention time of 790 s.

For `CCOC(=O)c1c(S(=O)(=O)N2CCC(C(=O)Nc3ccccc3C)CC2)c(C)n(CC)c1C`, the RP-LC retention time was 874 s.

`CN(Cc1ccccc1)C(=O)CN1C(=O)C(C(=O)N2CCCCCC2)Sc2ccccc21` (configuration not stated) showed an RP-LC retention time of 945 s.

`CCCCNC(=O)Cn1c(CC)nc2c(c1=O)CN(Cc1ccccc1)CC2` showed an RP-LC retention time of 605 s.

For `Cc1nnc(CNC(=O)CCc2c[nH]c3ccccc23)o1`, the RP-LC retention time was 622 s.

`COC(=O)c1ccc2c(=O)n(-c3ccc4c(c3)OCO4)c(N3CCN(c4ccccn4)CC3)nc2c1` showed an RP-LC retention time of 660 s.

`CC(C)N1C(=O)c2cccnc2Sc2cc(NC(=O)Cc3cccs3)ccc21` showed an RP-LC retention time of 834 s.

With `Cc1noc(C)c1-c1ccc(S(=O)(=O)N2CCC(C)CC2)cc1` the RP-LC retention time was 1020 s.

With `Cc1ccc(N2CCOCC2)c2c1C(=O)c1ccccc1C2=O` the RP-LC retention time was 927 s.

Work on `Clc1cccc(-c2nnc(Cc3nc(-c4ccccc4)no3)o2)c1` yielded an RP-LC retention time of 1070 s.

With `CCCCN(C)C(=O)Cn1c(=O)c2cnc(-c3ccc(Cl)cc3)nc2n(CC)c1=O` the RP-LC retention time was 1190 s.

Work on `c1ccc(-c2nnc(-c3nc(NCCCN4CCC(N5CCCCC5)CC4)c4ccccc4n3)o2)cc1` yielded an RP-LC retention time of 550 s.

Work on `COCCn1cc(CCNC(=O)Nc2cc(Cl)cc(Cl)c2)c2cccnc21` yielded an RP-LC retention time of 893 s.

With `CCCNC(=O)c1cc(C)nc2ccc(Br)cc12` the RP-LC retention time was 718 s.

Work on `CCS(=O)(=O)N1CCc2c(c(CN(C(=O)c3ccccc3F)c3ccccc3)nn2C)C1` yielded an RP-LC retention time of 774 s.

`O=C1CCc2cc(NC(=O)C3CC3)ccc2N1` showed an RP-LC retention time of 599 s.

Molecule `Cc1ccc2nc(CNC(=O)C3CCN(S(=O)(=O)c4ccc5c(c4)sc(=O)n5C)CC3)[nH]c2c1` has an RP-LC retention time of 636 s.

`COc1ccc(C)cc1NC(=O)C1CCN(S(=O)(=O)c2ccc3c(c2)sc(=O)n3C)CC1` gave an RP-LC retention time of 827 s.

Work on `O=C(c1nc2ncccn2n1)N1CCCn2cc(-c3ccccc3)nc21` yielded an RP-LC retention time of 595 s.

For `CCCc1c(C(=O)O)nnn1-c1cc(C)ccc1F`, the RP-LC retention time was 787 s.

With `CCOc1ccc(OCC)c(NC(=O)CSc2nnc3c4cc(-c5ccc(OC)cc5)nn4ccn23)c1` the RP-LC retention time was 1010 s.

For `COc1ccc(Nc2c(-c3ccc(N4CCOCC4)cc3)nc3ncccn23)cc1`, the RP-LC retention time was 654 s.

Molecule `CCCNC(=O)c1sc(Nc2cccc(C)n2)nc1C` has an RP-LC retention time of 697 s.

Molecule `COc1ccc(Cl)cc1NC(=O)Cc1csc2nc(-c3ccccc3)cn12` has an RP-LC retention time of 902 s.

In the case of `CS(=O)(=O)Nc1ccc2oc3c(OC(F)F)ccc(C(=O)Nc4c(Cl)cncc4Cl)c3c2c1`, the RP-LC retention time is reported as 967 s.

Molecule `O=C(CC1=NS(=O)(=O)c2ccccc2N1)Nc1ccc(F)cc1F` has an RP-LC retention time of 679 s.

`CCOC(=O)Oc1c(OC)cc(C(=O)O[C@@H]2C[C@@H]3CN4CCc5c([nH]c6cc(OC)ccc56)[C@H]4C[C@@H]3[C@H](C(=O)OC)[C@H]2OC)cc1OC` showed an RP-LC retention time of 935 s.

`CN1C(=O)CCC2(CNC(=O)c3cccn3C)CCC=C12` (configuration not stated) gave an RP-LC retention time of 720 s.

Work on `O=C(Cc1ccc(Cl)cc1)N1CCN(c2cnn3cnnc3c2)CC1` yielded an RP-LC retention time of 656 s.

For `CN(Cc1ccccc1)C(=O)c1cc2n(n1)CC(C)(C(=O)NC1CCCCCC1)N(C)C2=O` (configuration not stated), the RP-LC retention time was 866 s.

For `Cc1ccc(-c2noc(C3CCCN3S(=O)(=O)c3ccc(Br)s3)n2)cc1` (configuration not stated), the RP-LC retention time was 1220 s.

Work on `O=C(NCc1ccc(F)cc1Cl)c1cn2c(n1)CCCC2` yielded an RP-LC retention time of 607 s.

`CC(=O)Nc1ccc(SCC(=O)Nc2ccc(OC(F)(F)F)cc2)nn1` gave an RP-LC retention time of 745 s.

In the case of `Cn1c(CN2CCN(C(=O)Cc3ccc(Cl)cc3)CC2)nc2cc(C(=O)N3CCCC3)ccc21`, the RP-LC retention time is reported as 646 s.

`O=C(C1CCCCC1)N1CCN(c2nnc3ccc(C(F)(F)F)cn23)CC1` showed an RP-LC retention time of 817 s.

Molecule `O=C(NCc1cccc(F)c1)N1CCC(n2c(-c3ccco3)nc3cccnc32)C1` (configuration not stated) has an RP-LC retention time of 774 s.

For `CCCN1C(=O)CCc2cc(NS(=O)(=O)c3ccccc3C(=O)OC)ccc21`, the RP-LC retention time was 845 s.

Work on `CCN1CCN(CCCNC(=O)c2cc3sccc3n2C)CC1` yielded an RP-LC retention time of 569 s.

`Cc1ccc(-c2nc(NC(=O)c3cc(C)on3)sc2C)cc1` gave an RP-LC retention time of 1090 s.

`O=C(c1sc2ncccc2c1-n1cccc1)N1CCN(Cc2ccccc2)CC1` gave an RP-LC retention time of 648 s.

Molecule `COc1ccc(C)cc1NC(=O)Cn1nc2c(Oc3ccc(Cl)cc3)nccn2c1=O` has an RP-LC retention time of 946 s.

Work on `CC(C)C(=O)N1CCc2cc(CNS(=O)(=O)Cc3ccccc3)ccc21` yielded an RP-LC retention time of 652 s.

Work on `COc1cccc(Cn2nc3c(S(=O)(=O)N4CCCCCC4)cccn3c2=O)c1` yielded an RP-LC retention time of 918 s.

`COc1cccc(NC(=O)Cn2c3ccccc3n3c(=O)cc(-c4ccc(F)cc4)nc23)c1` gave an RP-LC retention time of 961 s.

Work on `Cc1cc2occ(CN(C)CCN(C)Cc3cn(-c4cccc(C(F)(F)F)c4)c4ccccc34)c(=O)c2cc1C` yielded an RP-LC retention time of 1090 s.

For `CCc1ccc(N2CCn3c2nc2c3c(=O)n(CC(=O)O)c(=O)n2C)cc1`, the RP-LC retention time was 785 s.

Work on `Cc1ncc2c(n1)C[C@@H]1CC[C@H]2N1C(=O)Nc1ccccc1F` yielded an RP-LC retention time of 638 s.

Molecule `Cc1ccc(S(=O)(=O)Nc2ccc(Nc3ccc(-n4cccn4)nn3)cc2)c(C)c1` has an RP-LC retention time of 829 s.

For `Cc1ccc(CN2C(=O)COc3ccc(C(=O)NCc4ccc5c(c4)OCO5)cc32)cc1`, the RP-LC retention time was 921 s.

With `COc1ccc(NS(=O)(=O)c2cc3n(c2)CCCNC3=O)cc1` the RP-LC retention time was 615 s.

Molecule `CC(Oc1cccc(Cl)c1)c1nc(-c2ccc3ncn(C)c3c2)no1` (configuration not stated) has an RP-LC retention time of 827 s.

For `Cc1nc(-c2ccc(N3CCN(C(=O)c4ccc(Br)o4)CC3)cc2)no1`, the RP-LC retention time was 912 s.

Molecule `CNC(=O)Nc1cccn2nc(-c3ccccc3)nc12` has an RP-LC retention time of 702 s.

For `CCCCNC(=O)c1nc(Nc2ccc(CC)cc2)c2ccccc2n1`, the RP-LC retention time was 916 s.

`CCc1nc(-c2cc(S(=O)(=O)NCC(=O)N3CCN(c4ccc(F)cc4)CC3)c(C)s2)no1` gave an RP-LC retention time of 959 s.

For `Cc1cc(=O)n(CC(=O)Nc2ccc(F)cc2)c(N)n1`, the RP-LC retention time was 592 s.

In the case of `CCc1nc(OCC(=O)NCc2ccc(SC)cc2)c2ccccc2n1`, the RP-LC retention time is reported as 814 s.

`Fc1ccc(-c2nnc(Cc3nc(-c4cccs4)no3)o2)cc1` gave an RP-LC retention time of 926 s.

Work on `CNC(=O)c1ccc(-c2nc3cc(NS(=O)(=O)c4ccc(F)c(Cl)c4)ccc3n2C)cc1` yielded an RP-LC retention time of 674 s.

For `CCc1cccc(NC(=O)N2CCC(c3cc(N)on3)CC2)c1`, the RP-LC retention time was 751 s.

Work on `CCc1ccc(N2CC(c3noc(-c4ccc(C)cc4)n3)CC2=O)cc1` (configuration not stated) yielded an RP-LC retention time of 1170 s.

For `Cc1sc(-c2nc(C(C)C)cs2)cc1S(=O)(=O)NC1CCCC1`, the RP-LC retention time was 1240 s.

`Cc1ccc(-c2ccc(-n3nc(C)c(S(=O)(=O)NCCC(C)C)c3C)nn2)cc1` gave an RP-LC retention time of 1210 s.

With `CCOC(=O)Cc1ccc(NC(=O)N2CCN(c3nc4ccccc4n3C)CC2)cc1` the RP-LC retention time was 656 s.

Work on `CCCC(=O)N1CCc2c(c(C(=O)N3CCCC(C(=O)Nc4ccccc4C)C3)nn2C)C1` (configuration not stated) yielded an RP-LC retention time of 759 s.
